Measured values as given in ChEMBL document CHEMBL1275354, “Anticonvulsant activity of 2,4(1H)-diarylimidazoles in mice and rats acute seizure models” (Bioorg Med Chem, 2010).
The source made the active and inactive calls. No cut-off for these calls is given here.

Key:
[1] = tested on: Mus musculus; assay: Anticonvulsant activity in albino CF1 mouse assessed as protection against subcutaneous metrazole-induced seizures at 300 mg/kg, ip after 4 hrs; assay type: functional, organism-based; design: dose 300 mg/kg
[2] = tested on: Mus musculus; assay: Anticonvulsant activity in albino CF1 mouse assessed as protection against subcutaneous metrazole-induced seizures at 100 mg/kg, ip after 4 hrs; assay type: functional, organism-based; design: dose 100 mg/kg
[3] = tested on: Mus musculus; assay: Neurotoxicity in albino CF1 mouse assessed as minimal motor impairment at 100 mg/kg, ip after 4 hrs by rotarod test; assay type: toxicity, organism-based; design: dose 100 mg/kg, route intraperitoneal; details: in vivo
[4] = tested on: Mus musculus; assay: Neurotoxicity in albino CF1 mouse assessed as minimal motor impairment at 300 mg/kg, ip after 0.5 hrs by rotarod test; assay type: toxicity, organism-based; design: dose 300 mg/kg, route intraperitoneal; details: in vivo
[5] = tested on: Mus musculus; assay: Anticonvulsant activity in albino CF1 mouse assessed as protection against maximal electroshock-induced seizures at 30 mg/kg, ip after 0.5 hrs; assay type: functional, organism-based; design: dose 30 mg/kg
[6] = tested on: Rattus norvegicus; assay: Anticonvulsant activity in albino Sprague-Dawley rat assessed as protection against maximal electroshock-induced seizures at 30 mg/kg, po after 0.25 hrs; assay type: functional, organism-based; design: dose 30 mg/kg
[7] = tested on: Rattus norvegicus; assay: Anticonvulsant activity in albino Sprague-Dawley rat assessed as protection against maximal electroshock-induced seizures at 30 mg/kg, po after 1 hr; assay type: functional, organism-based; design: dose 30 mg/kg
[8] = tested on: Mus musculus; assay: Neurotoxicity in albino CF1 mouse assessed as minimal motor impairment at 30 mg/kg, ip after 0.5 hrs by rotarod test; assay type: toxicity, organism-based; design: dose 30 mg/kg, route intraperitoneal; details: in vivo
[9] = tested on: Mus musculus; assay: Anticonvulsant activity in albino CF1 mouse assessed as protection against maximal electroshock-induced seizures at 300 mg/kg, ip after 0.5 hrs; assay type: functional, organism-based; design: dose 300 mg/kg
[10] = tested on: Rattus norvegicus; assay: Anticonvulsant activity in albino Sprague-Dawley rat assessed as protection against maximal electroshock-induced seizures at 30 mg/kg, po after 0.5 hrs; assay type: functional, organism-based; design: dose 30 mg/kg
[11] = tested on: Mus musculus; assay: Anticonvulsant activity in albino CF1 mouse assessed as protection against subcutaneous metrazole-induced seizures at 30 mg/kg, ip after 0.5 hrs; assay type: functional, organism-based; design: dose 30 mg/kg
[12] = tested on: Mus musculus; assay: Neurotoxicity in ip dosed albino CF1 mouse assessed as minimum dose required to cause toxicity after 0.5 hrs by rotarod test; assay type: organism-based; details: in vivo
[13] = tested on: Mus musculus; assay: Anticonvulsant activity in albino CF1 mouse assessed as protection against subcutaneous metrazole-induced seizures at 300 mg/kg, ip after 0.5 hrs; assay type: functional, organism-based; design: dose 300 mg/kg
[14] = tested on: Mus musculus; assay: Anticonvulsant activity against subcutaneous metrazole-induced seizures in ip dosed albino CF1 mouse assessed as minimum effective dose after 4 hrs; assay type: functional; details: albino CF1, 4 h, read-out: MED
[15] = tested on: Mus musculus; assay: Neurotoxicity in albino CF1 mouse assessed as minimal motor impairment at 30 to 300 mg/kg, po after 4 hrs by rotarod test; assay type: toxicity, organism-based; design: dose 30-300 mg/kg, route oral; details: in vivo
[16] = tested on: Mus musculus; assay: Neurotoxicity in ip dosed albino CF1 mouse assessed as minimum dose required to cause toxicity after 4 hrs by rotarod test; assay type: organism-based; details: in vivo
[17] = tested on: Rattus norvegicus; assay: Anticonvulsant activity in albino Sprague-Dawley rat assessed as protection against maximal electroshock-induced seizures at 30 mg/kg, po after 2 hrs; assay type: functional, organism-based; design: dose 30 mg/kg
[18] = tested on: Mus musculus; assay: Neurotoxicity in albino CF1 mouse assessed as minimal motor impairment at 300 mg/kg, ip after 4 hrs by rotarod test; assay type: toxicity, organism-based; design: dose 300 mg/kg, route intraperitoneal; details: in vivo
[19] = tested on: Mus musculus; assay: Neurotoxicity in albino CF1 mouse assessed as minimal motor impairment at 30 to 300 mg/kg, ip after 0.5 hrs by rotarod test; details: in vivo
[20] = tested on: Mus musculus; assay: Anticonvulsant activity in albino CF1 mouse assessed as protection against subcutaneous metrazole-induced seizures at 30 mg/kg, ip after 4 hrs; assay type: functional, organism-based; design: dose 30 mg/kg
[21] = tested on: Mus musculus; assay: Anticonvulsant activity in albino CF1 mouse assessed as protection against subcutaneous metrazole-induced seizures at 100 mg/kg, ip after 0.5 hrs; assay type: functional, organism-based; design: dose 100 mg/kg
[22] = tested on: Mus musculus; assay: Neurotoxicity in albino CF1 mouse assessed as minimal motor impairment at 30 mg/kg, ip after 4 hrs by rotarod test; assay type: toxicity, organism-based; design: dose 30 mg/kg, route intraperitoneal; details: in vivo
[23] = tested on: Mus musculus; assay: Anticonvulsant activity against maximal electroshock-induced seizures in ip dosed albino CF1 mouse assessed as minimum effective dose after 0.5 hrs; assay type: functional; details: read-out: MED
[24] = tested on: Mus musculus; assay: Anticonvulsant activity against maximal electroshock-induced seizures in ip dosed albino CF1 mouse assessed as minimum effective dose after 4 hrs; assay type: functional; details: read-out: MED
[25] = tested on: Mus musculus; assay: Anticonvulsant activity in albino CF1 mouse assessed as protection against maximal electroshock-induced seizures at 300 mg/kg, ip after 4 hrs; assay type: functional, organism-based; design: dose 300 mg/kg
[26] = tested on: Rattus norvegicus; assay: Neurotoxicity in albino Sprague-Dawley rat assessed as minimal motor impairment at 30 mg/kg, po by rotarod test; assay type: toxicity, organism-based; design: dose 30 mg/kg, route oral; details: in vivo
[27] = tested on: Mus musculus; assay: Neurotoxicity in albino CF1 mouse assessed as minimal motor impairment at 100 mg/kg, ip after 0.5 hrs by rotarod test; assay type: toxicity, organism-based; design: dose 100 mg/kg, route intraperitoneal; details: in vivo
[28] = tested on: Mus musculus; assay: Anticonvulsant activity against subcutaneous metrazole-induced seizures in ip dosed albino CF1 mouse assessed as minimum effective dose after 0.5 hrs; assay type: functional; details: albino CF1, 0.5 h, read-out: MED
[29] = tested on: Mus musculus; assay: Anticonvulsant activity in albino CF1 mouse assessed as protection against maximal electroshock-induced seizures at 100 mg/kg, ip after 4 hrs; assay type: functional, organism-based; design: dose 100 mg/kg
[30] = tested on: Mus musculus; assay: Anticonvulsant activity in albino CF1 mouse assessed as protection against maximal electroshock-induced seizures at 30 mg/kg, ip after 4 hrs; assay type: functional, organism-based; design: dose 30 mg/kg
[31] = tested on: Rattus norvegicus; assay: Anticonvulsant activity in albino Sprague-Dawley rat assessed as protection against maximal electroshock-induced seizures at 30 mg/kg, po after 4 hrs; assay type: functional, organism-based; design: dose 30 mg/kg
[32] = tested on: Mus musculus; assay: Anticonvulsant activity in albino CF1 mouse assessed as protection against maximal electroshock-induced seizures at 100 mg/kg, ip after 0.5 hrs; assay type: functional, organism-based; design: dose 100 mg/kg
[33] = tested on: Mus musculus; assay: Anticonvulsant activity in albino CF1 mouse assessed as protection against maximal electroshock-induced seizures at 100 mg/kg, ip after 2 hrs; assay type: functional, organism-based; design: dose 100 mg/kg

Compound | Activity [1] | Activity [2] | Activity [3] | Activity [5] | Activity [8] | Activity [9] | Activity [11] | MED [12] [mg/kg] | Activity [13] | minimal effective dose [14] [mg/kg] | Activity [15] | MED [16] [mg/kg] | Activity [18] | Activity [19] | Activity [20] | Activity [21] | Activity [22] | minimal effective dose [23] [mg/kg] | minimal effective dose [24] [mg/kg] | Activity [25] | also measured
O=[N+]([O-])c1cccc(-c2nc(-c3ccccc3)c[nH]2)c1 | inactive | inactive | Non-toxic | inactive | Non-toxic | Active | inactive | > 300 | inactive | > 300 | Non-toxic | > 300 | Non-toxic | Non-toxic | inactive | inactive | Non-toxic | 100 | 100 | Active | Activity [4]: Non-toxic; Activity [6]: inactive; Activity [7]: inactive; Activity [10]: inactive; Activity [17]: inactive; Activity [26]: Non-toxic; Activity [27]: Non-toxic; minimal effective dose [28]: > 300 mg/kg; Activity [29]: inactive; Activity [30]: inactive; Activity [31]: inactive
O=[N+]([O-])c1cccc(-c2c[nH]c(-c3ccccc3)n2)c1 | inactive | inactive | Non-toxic | inactive | Non-toxic | Active | inactive | > 300 | inactive | > 300 | Non-toxic | > 300 | Non-toxic | Non-toxic | inactive | inactive | Non-toxic | 100 | 100 | Active | Activity [4]: Non-toxic; Activity [6]: inactive; Activity [7]: inactive; Activity [10]: inactive; Activity [17]: inactive; Activity [26]: Non-toxic; Activity [27]: Non-toxic; minimal effective dose [28]: > 300 mg/kg; Activity [29]: inactive; Activity [30]: inactive; Activity [31]: inactive
FC(F)(F)c1cccc(-c2nc(-c3ccccc3)c[nH]2)c1 | inactive | inactive | Non-toxic | inactive | Non-toxic | inactive | inactive | 100 | inactive | > 300 | Non-toxic | > 300 | Non-toxic | Non-toxic | inactive | inactive | Non-toxic | > 300 | 100 | Active | Activity [32]: inactive; Activity [33]: inactive; Activity [27]: Non-toxic; minimal effective dose [28]: > 300 mg/kg; Activity [29]: inactive; Activity [30]: inactive
